Results reported in a melting point compilation (Tetko et al.; mined from patent text by program, amines drawn as free bases though some values may be those of a salt).

Row | Compound | melting point [°C]
1 | COCCOc1ccc(/C=C/C(=O)NS(=O)(=O)c2ccccc2)c(Oc2ncc(C(F)(F)F)cc2Cl)c1 | 136
2 | CC(C)(C)OC(=O)NC1(c2ccccc2)CCN(CCC2(c3ccc(F)c(F)c3)CN(C(=O)c3ccccc3)CCO2)CC1 (configuration not stated) | 107
3 | O=S(=O)(Oc1cccc(OS(=O)(=O)C(F)(F)F)c1OS(=O)(=O)C(F)(F)F)C(F)(F)F | 47.5 to 48.5
4 | COC(=O)/C=C(\C)c1ccc2c(c1)C(C)(C)OC(=O)N2 | 131 to 132
5 | COc1cc2ncc(C#N)c(Nc3cc(Br)c(O)c(Br)c3)c2cc1OC | > 250
6 | O=C(O)C(c1ccccc1)C1CCN(c2ccc([N+](=O)[O-])cc2)CC1 (configuration not stated) | 216
7 | CCn1ncc2c3onc(-c4cccc(O)c4)c3cnc21 | 187 to 188
8 | COc1ccc(N2CCN(c3c(C)c(C)c4c(c3-c3ccoc3)CC(C)(C)O4)CC2)cc1 | 192 to 195
9 | CS(=O)(=O)Nc1cc(F)cc(C(O)CN)c1 (configuration not stated) | 167 to 169
10 | Cn1nnnc1C=C(c1ccccc1)c1ccccc1 | 147 to 148
11 | CC1=NS(=O)(=O)N(C)C(Cl)=N1 | 86 to 90
12 | CC(C)CCOc1ccc(C(=O)C(O)O)cc1 | 80 to 85
13 | CN(C)S(=O)(=O)c1cc(N=C=O)ccc1Cl | 82 to 85
14 | CCOC(=O)Cc1ccc(-c2nc(COc3ccc(COc4nn(-c5ccccc5)cc4C=O)cc3OC)c(C)o2)cc1 | 157 to 158
15 | COc1ccc(CC(NC(c2ccccc2)c2ccccc2)P(O)O)cc1OC (configuration not stated) | 205
16 | CC1(C)CCC2(CC1)CC(=O)N(CCCn1c(=O)sc3ccc(Cl)cc31)C2=O | 159 to 160
17 | Cc1cc(-c2nnc3c4ccccc4c(OCc4nc[nH]n4)nn23)no1 | 260 to 262
18 | O=C(O)C=Cc1ccc(OCC2CN(c3ccccc3)C(=O)O2)cc1 (configuration not stated) | 239 to 240
19 | O=C(O)CCCCCCCn1c(-c2cc(I)c(O)c(I)c2)nc(-c2ccccc2)c1-c1ccccc1 | 186
20 | CC(C)(C)OC(=O)NCCNC(=O)c1noc(N)c1-c1ccccc1 | 144
21 | O=[N+]([O-])c1cccc(Oc2ccc(-c3ccccc3)cc2)c1 | 97.6 to 98.8
22 | COC(=O)c1ncc(Cl)nc1NCc1ccc(OC)c(Cl)c1 | 149 to 151
23 | CC(=O)Oc1cccc(C(=O)c2ccccc2)c1OC(C)=O | 81 to 83
24 | COc1cc2ncnc(N3CCC(C(C)CN4CCC(C)NS4(=O)=O)CC3)c2cc1OC (configuration not stated) | 172 to 175
25 | NC(=O)c1c(Cl)ccc(Br)c1Cl | 117 to 119

Row | Compound | melting point [°C]
26 | CN(C(N)=O)C1Nc2ccc(Cl)cc2Oc2ccccc21 (configuration not stated) | 146 to 149
27 | CC(C)(C)OC(=O)NCc1cccc(C(O)c2cc(Cl)ccc2NCc2ccc(OCc3ccccc3)c(OCc3ccccc3)c2)c1 (configuration not stated) | 118 to 120
28 | COC(=O)c1c(C)[nH]c(-c2ncncc2Cl)c1C(=O)OC | 180 to 181
29 | CCCCc1nc2c(N)nc3ccccc3c2n1CCCCS(=O)(=O)c1ccccc1 | 179 to 180
30 | CC(C)n1c(NC(=O)c2ccccc2)nc2ccccc2c1=O | 156 to 158
31 | CC(=O)OCCC1CC2=C(O1)C(C)=CC(C)(O)C2C (racemic) | 90 to 92
32 | CCOC(=O)C1C(c2ccco2)C(C(=O)OCC)C(O)(C(F)(F)F)NC1(O)C(F)(F)F (configuration not stated) | 129 to 131
33 | CCOC(=O)CCCC(=O)c1ccc(O)c(CCC(=O)OCC)c1 | 68 to 69
34 | CCCCCCc1cc2c(s1)-n1c(C)nnc1CN=C2c1ccccc1Cl | 111 to 113
35 | O=[N+]([O-])c1c[nH]nc1-c1ccc(Cl)cc1 | 172 to 174
36 | O=c1[nH]ncn1-c1ccc(-n2ncn(-c3ccc(OCC(F)(F)C(F)F)cc3)c2=O)cc1 | 297 to 298
37 | C#CCCCCOc1ccc(C=O)cc1OC | 67 to 68
38 | CC1(C)COC(CCc2ccc(N)cc2)OC1 | 93.5 to 94.5
39 | CS(=O)(=O)c1ccc(-c2cc(CO)nn2CC2CCCCC2)cc1 | 104
40 | CCC1CCC(=O)C=C1c1ccc(OC(CC)C(=O)O)c(Cl)c1Cl (configuration not stated) | 160 to 162
41 | CS(=O)(=O)c1ccc(-c2cnn(-c3cccc(Cl)c3)c(=O)c2COC(=O)c2ccccc2)cc1 | 50 to 70
42 | COc1cc(OC)nc(NC(=O)NS(=O)(=O)Oc2ccccc2-c2csnn2)n1 | 173 to 175
43 | Cc1c[nH]c2c(=O)n(CC(=O)N[C@H](C=O)CC(=O)O)cnc12 | 222 to 226
44 | CC(=O)Nc1nc2c(s1)-c1c(cnn1-c1ccc(C(=O)N3CCC(NC(=O)Cc4ccccc4)CC3)cc1)CC2 | 271 to 272
45 | CC(C)(C)C(O)(Cn1cncn1)C(Cl)=CBr (configuration not stated) | 45 to 48
46 | CN(C)c1ncnc2c1ncn2Cc1c(F)cccc1Cl | 134 to 135
47 | O=C(CCCN1CCC(c2noc3cc(F)ccc23)CC1)c1cc2c(s1)C(=O)NCCC2 | 186 to 187
48 | Cc1cc(C2=NOC(c3cc(Cl)cc(Cl)c3)(C(F)(F)F)C2)ccc1C(=O)NCC(N)=O (configuration not stated) | 87 to 91
49 | CCCCCCCCCCCCCCCCCCOc1ccc(NC(=O)c2ccc(OC(C)=O)cc2)cc1OCCCCCCCCCCCCCCCCCC | 107
50 | CC1(C(=O)c2ccc(C(=O)O)cc2)CC1 | 136 to 137

Row | Compound | melting point [°C]
51 | CCOCNC(=O)c1cc(OC)cc(Oc2cccc(C(F)(F)F)c2)n1 | 44 to 47
52 | CN(C)CCCC1(O)c2ccccc2COc2ccc(C3=NC(C)(C)CO3)cc21 (configuration not stated) | 166 to 167
53 | NC(=O)c1cc(OCCCN2CCN(c3cccc4sccc34)CC2)c2ccccc2n1 | 153 to 154
54 | O=C(NCC12CC3CC(CC(C3)C1)C2)c1cc(CCCNCCCO)ncc1Cl | 84 to 85
55 | O=P(c1ccccc1)(c1ccc(F)cc1)c1ccc(F)cc1 | 103 to 105
56 | O=Cc1cc2cc(Cl)ccc2nc1Cl | 188 to 190
57 | NC(=O)CCn1nccc1-c1ccc(Oc2ccc(F)cc2)cc1 | 118 to 120
58 | CC(C)Cn1c(CNC(=O)OC(C)(C)C)c(-c2ccc(Cl)cc2)c2cc(/C=C/C(=O)O)ccc2c1=O | 147 to 149
59 | COC(=O)C(=Cc1cc(OC)c(OC)cc1Br)c1ccccc1C(=O)O | 129 to 130
60 | Cc1cc(C)c(CC(C)CC(C(=O)C(CC(C)Cc2c(C)cc(C)cc2C)N2C(=O)c3ccccc3C2=O)N2C(=O)c3ccccc3C2=O)c(C)c1 (configuration not stated) | 131 to 132
61 | CN(C)CCNC(=O)N1CCN(c2ccc(Cl)c(Cl)c2)CC1 | 80 to 83
62 | CCCCCOc1ccc(CCOc2ccc(/C=C(\OCC)C(=O)O)cc2OCCCC)cc1F | 102
63 | CN(C)[C@@H]1c2ccccc2N(C(=O)c2ccc(NC(=O)c3ccccc3Cl)cc2)CC[C@H]1O (relative stereo) | 180 to 182
64 | CCCCC(=O)/C=C/c1ccccc1 | 32 to 32.5
65 | CNS(=O)(=O)Nc1ccc(OCC2CCN(c3ccncc3)CC2)cc1 | 170 to 172
66 | Cc1c(CO)cc([N+](=O)[O-])c(Cl)c1[N+](=O)[O-] | 158 to 160
67 | Cc1cn(-c2cc(C)c3[nH]c(=O)ccc3c2)c(C)n1 | 322 to 325
68 | COc1cc2c(c(Cl)c1Cl)C(=O)C(CCCl)=C2 | 103 to 105
69 | N#Cc1cccc(NCC(=O)Nc2c(Cl)ccc3nc(N4CC[C@@H](O)C4)ccc23)c1 | 254 to 256
70 | CCOc1cnc(C(C)(C)OC(=O)Nc2ccc(-c3ncn(-c4ccc(OC(F)(F)F)cc4)n3)cc2)nc1 | 168 to 171
71 | C=CCOc1cc(-n2c(OC)nc(C(F)(F)C(F)(F)F)cc2=O)c(F)cc1Cl | 82 to 83
72 | CC(=O)Nc1cccc(-c2cccc(-n3cnc4cc(C(F)(F)F)ccc43)c2)c1 | 118 to 120
73 | Cn1c(CNC(=O)Nc2ccc3c(c2)CCC3NC(=O)OC(C)(C)C)c(-c2ccccc2)c2cc(Cl)ccc2c1=O (configuration not stated) | 225 to 227
74 | Cc1oc(-c2ccc(F)cc2)cc1C(C)O (configuration not stated) | 50 to 52
75 | CNC(=O)N(O)Cc1ccc(-c2ccccc2)s1 | 169

Row | Compound | melting point [°C]
76 | FC(F)(F)Oc1ccc(-n2cnc3ccc(-c4nnc(N5CCOCC5)o4)cc32)cc1 | 202 to 203
77 | CC(C)(C)OC(=O)NCC(N)c1c[nH]c2cc(Br)ccc12 (configuration not stated) | 80
78 | CCOC(=O)C=Cc1ccc(-n2ccnc2)cc1 | 96 to 97.5
79 | CCCn1nc2oc(=O)cc(C)c2c1C | 108 to 110
80 | CCCCCCCCCCOc1cc(OCCCCCCCCCC)cc(N(CC(=O)OCc2ccccc2)CC(=O)OCc2ccccc2)c1 | 55 to 57
81 | Cc1ccc(-c2cc(C(F)F)nn2-c2ccc(S(N)(=O)=O)c(F)c2)cc1Cl | 160 to 161
82 | c1cc(CN2CCCCC2)cc(OCCNc2nc3ccccc3s2)c1 | 141 to 142
83 | CCCCOC(=O)c1cc2cccc(O)c2[nH]1 | 150 to 151
84 | Cc1c(S(N)(=O)=O)c(C(F)(F)F)nn1C | 204 to 206
85 | O=C(O)C(Cc1ccccc1)c1ccc([N+](=O)[O-])cc1 (configuration not stated) | 163 to 164
86 | O=C1NC(=O)c2c1c(-c1c(Cl)cccc1Cl)cc1c2c2cc(O)ccc2n1CCCBr | 273 to 276
87 | CCOC(=O)c1c(O)c2cc(C)ccc2n(Cc2ccccc2)c1=O | 113
88 | Brc1ccc(-c2nnnn2Cc2ccccc2)s1 | 196 to 197
89 | COc1ccc(C2=NN(C(=O)c3cccnc3)CC2)c(OC)c1 | 112 to 113
90 | CCCC1=C(C#N)C(c2cccc(C#N)c2Br)c2c[nH]nc2N1C (configuration not stated) | 218 to 220
91 | CCCCCCOc1ccc2c(c1)C=C(C=O)CO2 | 36 to 38
92 | CCOC(=O)C1=C(C)Nc2nc(N3CCOCC3)nc(N3CCOCC3)c2C1c1cccc(C#N)c1 (configuration not stated) | 210
93 | N#CCNC(=O)C1(NC(=O)c2ccc(N3CCNCC3)cc2)CCCCC1 | 206 to 210
94 | CCCCN1CCC(CNC(=O)c2cc(Cl)cc3c2OCCO3)C(O)C1 (configuration not stated) | 112
95 | O=c1c2c(Cl)cc(N3CCNCC3)cc2n(Cc2ccccc2)c(=O)n1Cc1cccc(I)c1 | 98 to 104
96 | COC(=O)COc1ccc(CCCOS(C)(=O)=O)cc1 | 49 to 51
97 | CCc1cccc(C(=O)NN(C(=O)c2cc(C)cc(C)c2)C(C)(C)C)c1C | 167 to 169
